Consider seven molecules from patent publication US20260097083A1, “METHOD FOR PRODUCING PANCREATIC ENDODERM CELLS” (Kyoto University, priority 2022, published 2026).

Where a name gives a salt, the structure may show the parent alone.

The subject of data set [1] is NKX6.1-positive pancreatic endoderm cells derived from human iPS cells. In words: Screening of senescence-related reagents. The class given is cell-based. The procedure:
FIG. 2-A A schematic diagram illustrating senescence-related reagent screening. […] After the elapse of one week, the cells were counted under a fluorescence microscope. Cells were differentiated to a pancreatic endoderm cell level using a stepwise differentiation-inducing method, and were then re-seeded on a 24-well plate at 2×10^5/well. The following culture media were added to these cultured cells, and the cells were cultured for 1 week. […] After fixed using 4% PFA, the cells were subjected to β-gal staining and NKX6.1 antibody immunostaining, and fluorescently stained images were acquired using BZ-800 (Keyence). The number of NKX6.1-positive cells, the NKX6.1-positive ratio, and the β-gal-positive ratio were calculated using the BZ-[…]/Macro Cell Count function of that microscope. FIGS. 2-A and 3-A show the outline of this procedure. A reagent enabling proliferation of pancreatic endoderm cells derived from human iPS cells was searched for in the senescence-related reagents. […] Then, (1) the number of NKX6.1-positive cells, or (2) the ratio of NKX6.1-positive cells and the ratio of β gal-positive cells were measured after the culture. FIGS. 2-B to 2-D show the results.

In data set [2] the test system is pancreatic endoderm cells (NKX6.1-positive). The following applies: added to medium containing Y-27632 50 μM, 6 days, FIG. 7.
Protocol: The cells on Day 21 of expansion culture were cultured for 6 days using a culture medium obtained by adding various growth factors and small-molecule compounds to a culture medium for expansion culture containing Y-27632. The other conditions were the same as those of the screening of senescence-related reagents.
After passaged three times using a culture medium to which Y-27632 (50 μM) had been added, pancreatic endoderm cells were seeded on a 24-well plate coated with iMatrix at 2.0×10^5 cells/well. Each of screening reagents was added to the culture medium containing Y-27632 (50 μM), and then the cells were cultured. After 6 days, the ratio of NKX6.1-positive cells was checked through cell immunostaining.
Data set [3] has as its system PDX1+/NKX6.1+ pancreatic endoderm cells derived from human iPS cells. In words: Examination of other ROCK inhibitors for proliferating pancreatic endoderm cells. In kind it is cell-based. The following applies: 1 week, FIGS. 3-B and 3-C. The procedure:
FIG. 3-A A schematic diagram illustrating an experiment of examining other ROCK inhibitors. […] After the elapse of one week, the cells were counted under a fluorescence microscope.
Cells were differentiated to a pancreatic endoderm cell level using a stepwise differentiation-inducing method, and were then re-seeded on a 24-well plate at 2×10^5/well. The following culture media were added to these cultured cells, and the cells were cultured for 1 week. The culture medium for the Control group was improved MEM to which 0.5×B-27 Supplement, 100 U/ml penicillin/streptomycin, 100 ng/ml KGF/FGF7, 50 ng/ml EGF, and 10 mM nicotinamide had been added. […] After fixed using 4% PFA, the cells were subjected to β-gal staining and NKX6.1 antibody immunostaining, and fluorescently stained images were acquired using BZ-800 (Keyence). The number of NKX6.1-positive cells, the NKX6.1-positive ratio, and the β-gal-positive ratio were calculated using the BZ-H4CM/Macro Cell Count function of that microscope. FIGS. 2-A and 3-A show the outline of this procedure.
The experiments were conducted in the same manner as in Example 1. FIGS. 3-B and 3-C show the results.

For `CC1(C)CCC(c2ccc(Cl)cc2)=C(CN2CCN(c3ccc(C(=O)NS(=O)(=O)c4ccc(N[C@H](CCN5CCOCC5)CSc5ccccc5)c(S(=O)(=O)C(F)(F)F)c4)cc3)CC2)C1` [ABT263], the “ratio of β gal-positive cells (senescent cells)” value in data set [1] (1 week, FIG. 2-D) is “reduction in the ratio of β gal-positive cells”. The “cause inferred for the reduction in β gal-positive ratio” value in data set [1] (inferred from FIG. 2-B and 2-D) is “toxicity”.

Regarding `Cc1cccc(-c2n[nH]cc2-c2ccc3ncccc3n2)n1` [ALK5 inhibitor, 2-[3-[6-methylpyridin-2-yl]-1H-pyrazol-4-yl]-1,5-naphthyridine], the “ratio of NKX6.1-positive cells (screening outcome)” value in data set [2] is on record as “identified as candidates for a factor for improving expansion culture”.

As for `O=S(=O)(c1cccc2cnccc12)N1CCCNCC1` [Fasudil hydrochloride], in data set [3], the “effect of proliferating pancreatic endoderm cells (total cells, NKX6.1-positive cells)” value (shortened to “effect”) is on record as “exhibited the effect of proliferating pancreatic endoderm cells”.

For the molecule `CCn1c(-c2nonc2N)nc2cnc(Oc3cccc(NC(=O)c4ccc(OCCN5CCOCC5)cc4)c3)cc21` [GSK269962], the “effect” value in data set [3] is reported as “exhibited the effect of proliferating pancreatic endoderm cells”.

In the case of `CC1=C(C(=O)Nc2cc3cn[nH]c3cc2F)C(c2ccc(C(F)(F)F)cc2)CC(=O)N1` (centres unmarked) [GSK429286A], the “effect” value in data set [3] is “exhibited the effect of proliferating pancreatic endoderm cells”.

Turning to `Cc1cncc2cccc(S(=O)(=O)N3CCCNC[C@@H]3C)c12` [H1152], the “effect” value in data set [3] is “exhibited the effect of proliferating pancreatic endoderm cells”.

With `O=C(NCc1ccccc1)c1csc(Nc2ccncn2)n1` [Thiazovivin], in data set [3], the “effect” value was “exhibited the effect of proliferating pancreatic endoderm cells”.
